The numbers were not newly measured in article PMC9890135 (Molecular Cancer Therapeutics, 2022), which cites them from elsewhere.

Each structure is given as a SMILES string.

For this series the following is noted: cited from earlier work.

As for `COc1cc2nccc(Oc3ccc(NC(=O)C4(C(=O)Nc5ccc(F)cc5)CC4)cc3)c2cc1OC` [Cabozantinib, cabozantinib], the plasma half-life entry is “approximately 99 hours”.
